Laboratory results from US10301280B2 (Plexxikon Inc., priority 2012, dated 2019).

Target: c-kit mutant D816V (Homo sapiens (Human), UniProt P10721, D816V/DEL694-753)
Test: c-Kit mutant D816V biochemical assay (AlphaScreen)
Conditions: c-kit D816V biochemical inhibitory activity
In short: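 His-tagged c-Kit D816V kinase domain (551-934, Δ694-753, E. coli) phosphorylating 30 nM biotin-(E4Y)10 at 10 μM ATP in HEPES pH 7.2 with Mg/Mn, 5% DMSO, 30 min at room temperature. PY20-acceptor/streptavidin-donor AlphaScreen detection after EDTA stop. IC50 from 8-point 1:3 titration.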

c-kit mutant D816V, sequence (P10721 other isoform, or with tags, fused parts or gaps D816V/del 694-753): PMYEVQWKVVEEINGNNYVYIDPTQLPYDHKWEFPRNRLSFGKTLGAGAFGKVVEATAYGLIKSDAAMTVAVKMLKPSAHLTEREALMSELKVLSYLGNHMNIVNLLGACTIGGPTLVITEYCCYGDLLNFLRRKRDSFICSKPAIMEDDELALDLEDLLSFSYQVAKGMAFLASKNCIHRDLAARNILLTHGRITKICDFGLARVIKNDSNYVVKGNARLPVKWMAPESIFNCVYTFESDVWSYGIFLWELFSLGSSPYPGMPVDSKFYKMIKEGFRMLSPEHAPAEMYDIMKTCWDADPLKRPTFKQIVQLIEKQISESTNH

| SMILES | IC50 |
| --- | --- |
| CCc1cc(-c2cc3cc(NC(=O)c4[nH]nc(C)c4C)cnc3[nH]2)ccn1 [P-2177, N-[2-(2-ethyl-4-pyridyl)-1H-pyrrolo[2,3-b]pyridin-5-yl]-3,4-dimethyl-1H-pyrazole-5-carboxamide] | 0.0001 to 1 µM |
| Cc1cc(Cl)ccc1-c1cc2cc(NC(=O)c3[nH]nc(C)c3C)cnc2[nH]1 [P-2277, N-[2-(4-chloro-2-methyl-phenyl)-1H-pyrrolo[2,3-b]pyridin-5-yl]-3,4-dimethyl-1H-pyrazole-5-carboxamide] | 0.0001 to 1 µM |
| Cc1n[nH]c(C(=O)Nc2cnc3[nH]c(-c4ccc(CC(=O)O)cc4)cc3c2)c1C [P-2295, 2-[4-[5-[(3,4-dimethyl-1H-pyrazole-5-carbonyl)amino]-1H-pyrrolo[2,3-b]pyridin-2-yl]phenyl]acetic acid] | 0.0001 to 1 µM |
| O=C(Nc1cnc2[nH]c(-c3ccccc3)cc2c1)c1ncccc1F [P-2012, 3-fluoro-N-(2-phenyl-1H-pyrrolo[2,3-b]pyridin-5-yl)pyridine-2-carboxamide] | 1 to 10 µM |
| CCCS(=O)(=O)Nc1cccc(Nc2ncc(NC(=O)c3[nH]nc(C)c3C)cn2)c1 [P-2052, 3,4-dimethyl-N-[2-[3-(propylsulfonylamino)anilino]pyrimidin-5-yl]-1H-pyrazole-5-carboxamide] | 0.0001 to 1 µM |
| Cc1n[nH]c(C(=O)Nc2cnc3[nH]c(-c4ccc(F)cc4)cc3c2)c1Cl [P-2023, 4-chloro-N-[2-(4-fluorophenyl)-1H-pyrrolo[2,3-b]pyridin-5-yl]-3-methyl-1H-pyrazole-5-carboxamide] | 0.0001 to 1 µM |
| Cc1n[nH]c(C(=O)Nc2cnc3[nH]c(Cl)cc3c2)c1C [P-2049, N-(2-chloro-1H-pyrrolo[2,3-b]pyridin-5-yl)-3,4-dimethyl-1H-pyrazole-5-carboxamide] | 0.0001 to 1 µM |
